Reference: ChEMBL document CHEMBL4007400, “Role of Reactive Oxygen Species (ROS) in Therapeutics and Drug Resistance in Cancer and Bacteria” (J Med Chem, 2017)

Target: T1, 4,4'-diapophytoene synthase (Staphylococcus aureus, UniProt A9JQL9)
T1 sequence (A9JQL9 whole entry): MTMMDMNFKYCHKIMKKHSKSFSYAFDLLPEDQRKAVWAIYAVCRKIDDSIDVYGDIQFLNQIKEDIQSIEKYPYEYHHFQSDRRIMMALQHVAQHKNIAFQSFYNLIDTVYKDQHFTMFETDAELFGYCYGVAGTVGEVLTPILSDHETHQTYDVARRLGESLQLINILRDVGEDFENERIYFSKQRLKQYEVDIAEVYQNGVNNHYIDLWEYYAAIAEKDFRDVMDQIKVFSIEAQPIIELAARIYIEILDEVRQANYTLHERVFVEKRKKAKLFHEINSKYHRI
Experiment: Inhibition of Staphylococcus aureus ATCC 27659 histidine-tagged full length CrtM expressed in Escherichia coli BL21(DE3) cells assessed as decrease in staphyloxanthin formation after 30 mins by continous spectrophotometric method

With `O=P(O)(O)C(CCCc1cccc(Oc2ccccc2)c1)S(=O)(=O)O` (stereo unspecified) as the molecule, how does the Ki read?
The Ki was 1.5 nM.
